Data taken from the supplement of paper PMC10307832.

Key:
Experiment in all cases: relative viability (nuclei count vs DMSO), 5 days (fraction); higher = more cells survive
QS11 + Palbociclib = compound: C1CC2=C(C1)C=C(C=C2)OC3=NC(=C4C(=N3)N(C=N4)CC5=CC=C(C=C5)C6=CC=CC=C6)N[C@@H](CC7=CC=CC=C7)CO [QS11] + CC(=O)c1c(C)c2cnc(Nc3ccc(N4CCNCC4)cn3)nc2n(C2CCCC2)c1=O [Palbociclib] (partner 0.5 µM)
Summary of the method: (§1)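 Lung cancer cell lines in 1536-well plates were dosed by pin tool the day after seeding, either with one drug alone or with a fixed anchor-drug dose plus five library-drug doses (not always all listed) in √10 steps. After 5 days, cells were fixed and their nuclei stained in one step (final 0.05% Triton X-100, 1% formaldehyde, 1 ug/ml Hoechst), then counted on 4× images. Relative viability is the nuclei count in treated wells divided by that in vehicle wells. Values are medians of duplicate plates.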

QS11 + Pictilisib = compound: C1CC2=C(C1)C=C(C=C2)OC3=NC(=C4C(=N3)N(C=N4)CC5=CC=C(C=C5)C6=CC=CC=C6)N[C@@H](CC7=CC=CC=C7)CO [QS11] + CS(=O)(=O)N1CCN(Cc2cc3nc(-c4cccc5[nH]ncc45)nc(N4CCOCC4)c3s2)CC1 [Pictilisib] (partner 1 µM)
Summary of the method: as §1

[1] = compound: C[As](C)SC[C@H](NC(=O)CC[C@H](N)C(=O)O)C(=O)NCC(=O)O [Darinaparsin] + CC1(C)CCC(c2ccc(Cl)cc2)=C(CN2CCN(c3ccc(C(=O)NS(=O)(=O)c4ccc(N[C@H](CCN5CCOCC5)CSc5ccccc5)c(S(=O)(=O)C(F)(F)F)c4)cc3)CC2)C1 [Navitoclax] (partner 0.5 µM)
Summary of the method: as §1

[2] = compound: C[As](C)SC[C@H](NC(=O)CC[C@H](N)C(=O)O)C(=O)NCC(=O)O [Darinaparsin] + C[C@]1(O)C[C@@H](c2nc(-c3ccc4ccc(-c5ccccc5)nc4c3)c3c(N)nccn32)C1 [Linsitinib] (partner 1 µM)
Summary of the method: as §1

Cell Line	relative viability (QS11 + Palbociclib; first compound 0.08 µM)	relative viability (QS11 + Palbociclib; first compound 0.253 µM)	relative viability (QS11 + Palbociclib; first compound 0.8 µM)	relative viability (QS11 + Palbociclib; first compound 2.53 µM)	relative viability (QS11 + Palbociclib; first compound 8 µM)	relative viability (QS11 + Pictilisib; first compound 0.08 µM)	relative viability (QS11 + Pictilisib; first compound 0.253 µM)	relative viability (QS11 + Pictilisib; first compound 0.8 µM)	relative viability (QS11 + Pictilisib; first compound 2.53 µM)	relative viability (QS11 + Pictilisib; first compound 8 µM)	relative viability ([1]; first compound 0.08 µM)	relative viability ([1]; first compound 0.8 µM)	relative viability ([1]; first compound 2.53 µM)	relative viability ([1]; first compound 8 µM)	relative viability ([2]; first compound 0.08 µM)	relative viability ([2]; first compound 0.8 µM)	relative viability ([2]; first compound 2.53 µM)	relative viability ([2]; first compound 8 µM)
LK-2	0.723	0.826	0.777	0.507	0.705	0.605	0.698	0.537	0.547	0.602	0.968	0.709	0.746	1.07	0.486	0.459	0.658	0.637
LOU-NH91	0.527	0.536	0.513	0.58	0.629	0.541	0.484	–	0.494	0.54	0.699	0.701	0.642	0.604	0.962	0.92	0.952	0.946
LU99A	0.421	0.469	0.437	0.4	0.395	0.343	0.317	0.357	0.296	0.307	0.77	0.886	0.777	0.944	0.618	0.633	0.475	0.581
LXF-289	0.639	0.634	0.502	0.564	0.621	0.761	0.796	0.673	0.704	0.754	1	0.975	0.809	1.05	0.986	0.995	0.796	1.04
NCI-H23	0.492	0.387	0.354	0.347	0.329	0.394	0.413	0.405	0.433	0.361	1.09	0.917	0.963	1.02	0.661	0.635	0.482	0.685
NCI-H322M	0.516	0.461	0.468	0.517	0.593	0.55	0.483	0.492	0.545	0.49	1.25	1.17	1.13	1.33	1.05	0.998	0.736	0.956
NCI-H441	0.213	0.244	0.255	0.201	0.227	0.472	0.529	0.501	0.5	0.608	0.773	0.593	0.615	0.962	0.755	0.506	0.497	0.47
NCI-H460	0.426	0.093	0.0461	0.0817	0.0731	0.301	0.351	0.532	0.352	0.473	–	1.05	0.978	1.91	0.814	1.04	0.713	1.22
NCI-H520	0.211	0.208	0.268	0.208	0.204	–	0.343	0.27	0.321	0.275	1.41	0.976	1.17	1.11	1.02	1.08	0.863	0.985
NCI-H647	0.412	0.367	0.394	0.325	0.394	–	0.379	0.41	0.685	0.478	1.42	1.09	0.981	1.04	1.84	1.1	1.17	1.53
NCI-H727	0.694	0.73	0.698	0.637	0.699	0.355	0.304	0.407	0.279	0.229	0.405	0.447	0.472	0.393	0.3	0.225	0.319	0.354
NCI-H838	0.213	0.187	0.191	0.223	0.213	0.399	0.388	0.394	0.382	0.476	1.51	1.15	1.15	1.5	1.28	0.962	0.997	1.24
NCI-H1355	0.43	0.314	0.299	0.35	0.38	0.399	0.299	0.378	0.475	0.443	1.08	0.94	0.836	1.05	0.805	0.746	0.686	0.838
NCI-H1395	0.596	0.654	0.628	0.664	0.666	–	0.614	0.772	0.645	0.619	1.15	1.06	1.03	0.902	1.01	0.995	0.97	0.991
NCI-H1437	0.299	0.351	0.239	0.287	0.239	0.421	0.468	0.38	0.41	0.399	1.54	1.1	0.962	1.33	1.52	1.14	0.888	1.29
